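Results reflect a 48-hour exposure of cells in 96-well plates to compound at five concentrations. GI50 marks 50% less growth. The concentration for full growth arrest is given as TGI.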
Columns and labels:
Assay in all cases: NCI anticancer screen, dose series, 48 h
[1] = system: 786-0 renal
[2] = system: A498 renal
[3] = system: A549 NSCLC
[4] = system: ACHN renal
[5] = system: BT-549 breast
[6] = system: CAKI-1 renal
[7] = system: CCRF-CEM leukemia
[8] = system: COLO 205 colon
[9] = system: DU-145 prostate
[10] = system: EKVX NSCLC
[11] = system: HCC-2998 colon
[12] = system: HCT-116 colon
[13] = system: HCT-15 colon
[14] = system: HL-60(TB) leukemia
[15] = system: HOP-62 NSCLC
[16] = system: HOP-92 NSCLC
[17] = system: HS 578T breast
[18] = system: HT29 colon
[19] = system: IGROV1 ovarian
[20] = system: K-562 leukemia
[21] = system: KM12 colon
[22] = system: LOX IMVI melanoma
[23] = system: M14 melanoma
[24] = system: MALME-3M melanoma
[25] = system: MCF7 breast
[26] = system: MDA-MB-231 breast
[27] = system: MDA-MB-435
[28] = system: MOLT-4 leukemia
[29] = system: NCI-H226 lung
[30] = system: NCI-H23 lung
[31] = system: NCI-H460 lung
[32] = system: NCI-H522 lung
[33] = system: NCI/ADR-RES ovarian
[34] = system: OVCAR-3 ovarian
[35] = system: OVCAR-4 ovarian
[36] = system: OVCAR-5 ovarian
[37] = system: OVCAR-8 ovarian
[38] = system: PC-3 prostate
[39] = system: RPMI-8226 leukemia
[40] = system: RXF 393 renal
[41] = system: SF-268 CNS
[42] = system: SF-295 CNS
[43] = system: SF-539 CNS
[44] = system: SK-MEL-2 melanoma
[45] = system: SK-MEL-28 melanoma
[46] = system: SK-MEL-5 melanoma
[47] = system: SK-OV-3 ovarian
[48] = system: SN12C renal
[49] = system: SNB-19 CNS
[50] = system: SNB-75 CNS
[51] = system: SR leukemia
[52] = system: SW-620 colon
[53] = system: T-47D breast
[54] = system: TK-10 renal
[55] = system: U251 CNS
[56] = system: UACC-257 melanoma
[57] = system: UACC-62 melanoma
[58] = system: UO-31 renal

`C=C1CCC2C3(C)COC(c4ccc(SC)cc4)OC3CCC2(C)C1C/C=C1/C(=O)OCC1O` (configuration not stated) was tested, and the GI50 [1] was 6.7 µM, the TGI [1] was 19.2 µM and the GI50 [2] was 8.64 µM. For the same molecule, the TGI [2] was 22.4 µM, the GI50 [3] was 5.31 µM and the TGI [3] was 18.4 µM. It also gave a GI50 [4] of 6.25 µM, a TGI [4] of 17.2 µM and a GI50 [5] of 4.38 µM. The TGI [5] was 20.9 µM, the GI50 [6] was 11.2 µM and the TGI [6] was 28.2 µM. It also gave a GI50 [7] of 2.92 µM, a TGI [7] of 13.7 µM and a GI50 [8] of 7.72 µM. It also gave a TGI [8] of 20.6 µM, a GI50 [9] of 11.5 µM and a TGI [9] of 23.7 µM. For the same molecule, the GI50 [10] was 7.67 µM, the TGI [10] was 26.9 µM and the GI50 [11] was 11.9 µM. The TGI [11] was 24.9 µM, the GI50 [12] was 1.76 µM and the TGI [12] was 3.44 µM. For the same molecule, the GI50 [13] was 2.37 µM, the TGI [13] was 7.96 µM and the GI50 [14] was 2.59 µM. For the same molecule, the TGI [14] was 7.87 µM, the GI50 [15] was 17.3 µM and the TGI [15] was 32.8 µM. The GI50 [16] was 5.19 µM, the TGI [16] was 17.1 µM and the GI50 [17] was 5.17 µM. For the same molecule, the TGI [17] was 17 µM, the GI50 [18] was 2.42 µM and the TGI [18] was 7.02 µM. It also gave a GI50 [19] of 4.3 µM, a TGI [19] of 15.9 µM and a GI50 [20] of 2.66 µM. The TGI [20] was 12.2 µM, the GI50 [21] was 5.21 µM and the TGI [21] was 17.6 µM. It also gave a GI50 [22] of 1.44 µM, a TGI [22] of 3.01 µM and a GI50 [23] of 6.53 µM. The TGI [23] was 17.7 µM, the GI50 [24] was 14.9 µM and the TGI [24] was 32.1 µM. For the same molecule, the GI50 [25] was 3.04 µM, the TGI [25] was 11.7 µM and the GI50 [26] was 5.52 µM. It also gave a TGI [26] of 16.5 µM, a GI50 [27] of 3.69 µM and a TGI [27] of 16.4 µM. For the same molecule, the GI50 [28] was 3.43 µM, the TGI [28] was 20.9 µM and the GI50 [29] was 7.85 µM. For the same molecule, the TGI [29] was 25.7 µM, the GI50 [30] was 4.48 µM and the TGI [30] was 17.4 µM. For the same molecule, the GI50 [31] was 8.78 µM, the TGI [31] was 22.3 µM and the GI50 [32] was 1.92 µM. For the same molecule, the TGI [32] was 5.98 µM, the GI50 [33] was 2.78 µM and the TGI [33] was 8.18 µM. It also gave a GI50 [34] of 2.8 µM, a TGI [34] of 6.91 µM and a GI50 [35] of 5.81 µM. It also gave a TGI [35] of 18.7 µM, a GI50 [36] of 10.3 µM and a TGI [36] of 25.2 µM. The GI50 [37] was 2.14 µM, the TGI [37] was 6.56 µM and the GI50 [38] was 5.67 µM. It also gave a TGI [38] of 20.2 µM, a GI50 [39] of 2.64 µM and a TGI [39] of 15.1 µM. For the same molecule, the GI50 [40] was 4.51 µM, the TGI [40] was 15.6 µM and the GI50 [41] was 6.8 µM. The TGI [41] was 19.9 µM, the GI50 [42] was 8.14 µM and the TGI [42] was 23.7 µM. It also gave a GI50 [43] of 4.75 µM, a TGI [43] of 9.38 µM and a GI50 [44] of 3.73 µM. For the same molecule, the TGI [44] was 15.5 µM, the GI50 [45] was 8.67 µM and the TGI [45] was 21.1 µM. For the same molecule, the GI50 [46] was 6.85 µM, the TGI [46] was 19.4 µM and the GI50 [47] was 16.3 µM. For the same molecule, the TGI [47] was 32 µM, the GI50 [48] was 3.94 µM and the TGI [48] was 18.6 µM. For the same molecule, the GI50 [49] was 16.8 µM, the TGI [49] was 30.6 µM and the GI50 [50] was 10.1 µM. The TGI [50] was 21.7 µM, the GI50 [51] was 2.53 µM and the TGI [51] was 8.04 µM. It also gave a GI50 [52] of 1.93 µM, a TGI [52] of 3.66 µM and a GI50 [53] of 2.53 µM. For the same molecule, the TGI [53] was 13.7 µM, the GI50 [54] was 14 µM and the TGI [54] was 29.9 µM. It also gave a GI50 [55] of 2.29 µM, a TGI [55] of 5.7 µM and a GI50 [56] of 4.17 µM. The TGI [56] was 17.4 µM, the GI50 [57] was 5.45 µM and the TGI [57] was 20.4 µM. It also gave a GI50 [58] of 9.73 µM and a TGI [58] of 21.9 µM.

Work on `Oc1cc(O)c2c(=S)cc(-c3ccc(Cl)cc3)oc2c1` yielded a GI50 [1] of 7.12 µM, a TGI [1] of 22.9 µM and a GI50 [2] of 1.22 µM. For the same molecule, the TGI [2] was 11.7 µM, the GI50 [3] was 6.58 µM and the TGI [3] was 36.8 µM. The GI50 [4] was 2.61 µM, the TGI [4] was 11.1 µM and the GI50 [5] was 3.38 µM. The TGI [5] was 12.6 µM, the GI50 [6] was 2.95 µM and the TGI [6] was 19.1 µM. It also gave a GI50 [7] of 4.02 µM, a TGI [7] of over 63.1 µM and a GI50 [8] of 15.3 µM. It also gave a TGI [8] of 33.6 µM, a GI50 [9] of 4.09 µM and a TGI [9] of 35.1 µM. For the same molecule, the GI50 [10] was 9.36 µM, the TGI [10] was 54.1 µM and the GI50 [11] was 1.7 µM. It also gave a TGI [11] of 14.5 µM, a GI50 [12] of 2.84 µM and a TGI [12] of 10.4 µM. For the same molecule, the GI50 [13] was 0.397 µM, the TGI [13] was 11.9 µM and the GI50 [14] was 3.17 µM. For the same molecule, the TGI [14] was 22.5 µM, the GI50 [15] was 2.03 µM and the TGI [15] was 11.2 µM. It also gave a GI50 [16] of 1.62 µM, a TGI [16] of 5.11 µM and a GI50 [17] of 3.56 µM. For the same molecule, the TGI [17] was 40.3 µM, the GI50 [18] was 19.7 µM and the TGI [18] was 39.7 µM. It also gave a GI50 [19] of 0.533 µM, a TGI [19] of 16.5 µM and a GI50 [20] of 3.48 µM. The TGI [20] was 22.3 µM, the GI50 [21] was 2.08 µM and the TGI [21] was 11.5 µM. It also gave a GI50 [22] of 2.92 µM, a TGI [22] of 11.6 µM and a GI50 [23] of 3.22 µM. The TGI [23] was 14.8 µM, the GI50 [24] was 2.01 µM and the TGI [24] was 6.71 µM. The GI50 [25] was 0.111 µM, the TGI [25] was 11.4 µM and the GI50 [26] was 2 µM. It also gave a TGI [26] of 6.54 µM, a GI50 [27] of 3.41 µM and a TGI [27] of 14 µM. The GI50 [28] was 3.76 µM, the TGI [28] was 34.2 µM and the GI50 [29] was 4.97 µM. It also gave a TGI [29] of 32.5 µM, a GI50 [30] of 2.06 µM and a TGI [30] of 8.8 µM. It also gave a GI50 [31] of 2.96 µM, a TGI [31] of 13.3 µM and a GI50 [32] of 2.29 µM. It also gave a TGI [32] of 7.25 µM, a GI50 [33] of 2.8 µM and a TGI [33] of 10.7 µM. It also gave a GI50 [34] of 1.52 µM, a TGI [34] of 8.94 µM and a GI50 [35] of 0.379 µM. The TGI [35] was over 31.8 µM, the GI50 [36] was 11.1 µM and the TGI [36] was 32.5 µM. The GI50 [37] was 3.3 µM, the TGI [37] was 14.9 µM and the GI50 [38] was 2.84 µM. It also gave a TGI [38] of 12.3 µM, a GI50 [39] of 2.82 µM and a TGI [39] of 9.9 µM. It also gave a GI50 [40] of 3.15 µM, a TGI [40] of 12.5 µM and a GI50 [41] of 3.23 µM. The TGI [41] was 21.3 µM, the GI50 [42] was 5.67 µM and the TGI [42] was 22.9 µM. For the same molecule, the GI50 [43] was 3.31 µM, the TGI [43] was 17.1 µM and the GI50 [44] was 2.61 µM. The TGI [44] was 7.46 µM, the GI50 [45] was 4.15 µM and the TGI [45] was 18.4 µM. It also gave a GI50 [46] of 1.89 µM, a TGI [46] of 5.04 µM and a GI50 [47] of 2.77 µM. For the same molecule, the TGI [47] was 18.2 µM, the GI50 [48] was 2.78 µM and the TGI [48] was 11.1 µM. The GI50 [49] was 3.68 µM, the TGI [49] was 16.3 µM and the GI50 [50] was 2.23 µM. It also gave a TGI [50] of 13.8 µM, a GI50 [51] of 3.52 µM and a TGI [51] of 29.6 µM. It also gave a GI50 [52] of 3.55 µM, a TGI [52] of 16.9 µM and a GI50 [53] of 0.0304 µM. For the same molecule, the TGI [53] was 0.547 µM, the GI50 [54] was 4.08 µM and the TGI [54] was 19.1 µM. It also gave a GI50 [55] of 3.24 µM, a TGI [55] of 11.3 µM and a GI50 [56] of 2.75 µM. The TGI [56] was 7.96 µM, the GI50 [57] was 3.01 µM and the TGI [57] was 14.2 µM. It also gave a GI50 [58] of 1.21 µM and a TGI [58] of 8.58 µM.

From PubChem BioAssay (NCI)
